Structures can show the parent of a compound that is named as a salt.

Consider one molecule from patent publication US9399032B2, “Methods and compositions for treating degenerative and ischemic disorders” (The General Hospital Corporation, priority 2009, dated 2016).

The subject of test [1] is Mitochondria isolated from C57BL/6 mouse kidneys. Briefly: Bioenergetics of isolated mitochondria. The class given is biochemical. Particulars: acute addition. As to the method: Mootha et al., Am J Physiol 272:[…] (1997). State 2 respiration was initiated with the addition of 2.5 mM glutamate and 2.5 mM malate. State 3 respiration was initiated with the addition of 50 nmoles ADP. Uncoupled respiration was initiated with the addition of 5 μM CCCP (Sigma Cat No C2759). O2 consumption was monitored with a Fiber Optic Oxygen sensor probe from Ocean Optics, and NADH (endogenous, 370±7 nm excitation, 440±4 nm emission) and membrane potential (1.25 μM TMRM, 546±7 nm excitation, 590±4 nm emission) were measured with a Perkin-Elmer LS50B fluorimeter. A representative trace is shown from 6 independent experiments. 1M stock of phosphoethanolamine (Sigma P0503) was made in sterile water and pH was adjusted to 7.4 by 1N potassium hydroxide solution.

For test [2], the system named is AMPK. Briefly: Western blot detection of AMPK phosphorylation. The class given is cell-based. As to conditions: C2C12 myotubes, 24 hours of treatment. The method, then:
The ability of meclizine, S-meclizine and R-meclizine to activate AMPK in C2C12 myotubes was also evaluated using Western blot detection of AMPK phosphorylation in C2C12 myotubes following 24 hours of treatment with R-meclizine (R-Mec), S-meclizine (S-Mec) and the racemic mixture (Rac-Mec).
For orientation: In western blotting, separated proteins are transferred to a membrane and probed.

Test [3] concerns Glutaminase (GLS). As to the kind of experiment: Western detection of Glutaminase (GLS) protein. As to conditions: Western blot. The class given is cell-based. As to the method: To explore this hypothesis, activation of glycolysis via hypoxia inducible factor (HIF), a known transcriptional activator of glycolysis, was tested. HIF1-α and HIF2-α stabilization was assessed in HeLa cells by carrying out Western blot detection using anti-HIF1-α antibody (Cell Signaling Cat. No. 3716) and anti-HIF2-α antibody (Novus Biologicals). Protein was extracted from cells pre-treated with either 0.1% DMSO, 50 μM meclizine or 100 μM deferoxamine (Sigma Cat. No. D9533). Western detection of Glutaminase (GLS) was carried out on protein extracts from 293 cells using anti-GLS antibodies (gift from Dr. Javier Marquez, University of […], Spain).

Test [4] relates to caspase 3 and caspase 7. Briefly: Western blot of cleaved caspase 3 and 7 after serum withdrawal. The class given is cell-based, murine. Particulars: 50 μM, up to 24 hours after serum withdrawal. The method, then:
Western blot analysis was performed as follows. Murine STH^Q111/111 striatal cells expressing mutant huntingtin protein were grown to ˜75% confluency in 15 cm cell culture plate. Then serum containing medium was replaced with serum free media with either 0.1% DMSO or 50 μM meclizine and total protein was extracted at 0, 4, 10 and 24 hours post serum withdrawal and drug treatment in cell lysis buffer (Cell Signaling Cat No. 9803).
Protein concentration was determined using BCA protein assay kit (Thermo Scientific Cat No. 23227). SDS PAGE was performed using NuPAGE 4-12% Bis-Tris gel from Invitrogen (NP0321). 15 μg of protein was loaded per lane. Western blotting was performed as per the standard procedures. Cleaved Caspase 3 (Cat. No. 9661), Cleaved Caspase 7 (Cat. No. 9491), p-ERK ([…]; Cat No. 9803), and AKT (Cat. No. 9803) antibodies were obtained from Cell Signaling. β-Actin antibody was purchased from Sigma (A1978).

Test [5] concerns Adult rat ventricular cardiomyocytes. Briefly: Simulated ischemia-reperfusion injury in isolated cardiomyocytes. The class given is cell-based. The method, then: The ability of meclizine to protect isolated cardiomyocytes and isolated hearts from ischemic injury was investigated as follows Adult rat ventricular cardiomyocytes were isolated by endotoxin-free collagenase perfusion, and the simulated ischemia-reperfusion injury was performed as previously described (Wojtovich and Brookes, Basic Res. Cardiol., 104:121-129 (2009)). Control cells were exposed to DMSO for 20 minutes. Test cells were exposed to either vehicle or doses of meclizine for 20 minutes, which was washed out before being subjected to ischemia for 60 minutes followed by reperfusion for 30 minutes under normoxic conditions in normoxic glucose-replete buffer at pH 7.4. Cell viability was assayed by Trypan blue exclusion. VO2 was assessed by isolating mitochondria and measuring both respirating cells and mitochondria using a Clark oxygen electrode (Wojtovich, supra).

For test [6], the system named is C2C12 myotubes. As to the kind of experiment: [3H]-2-deoxyglucose uptake. The class given is cell-based. As to conditions: 50 micromolar, four hours. The method, then:
Fully differentiated C2C12 myotubes were subjected to a glucose uptake protocol, as follows. Briefly, C2C12 myotube cells were incubated for four hours in serum-free media containing either 0.1% DMSO as a control, 50 micromolar meclizine, 50 micromolar S-meclizine, or 2 mM metformin. Cells were subsequently incubated for thirty minutes in serum and glucose free buffer and then transitioned to buffer containing [3H]-2-deoxyglucose for five minutes. After multiple wash steps, cells were lysed and the lysate was subjected to scintillation counting to quantify uptake. Data were prepared as raw counts per minute, which is proportional to 2-deoxyglucose uptake.

Test [7] concerns GLS expressing 293 cells. As to the kind of experiment: OCR in 293 cells with forced GLS expression. The class given is cell-based. As to conditions: 50 μM. The method, then: FIG. 14B presents exemplary data showing OCR measurements on FACS sorted control (LacZ) or GLS expressing cells following DMSO or 50 μM meclizine addition at time 0 min (n=4).
Glutaminase full length cDNA (Open Biosystems, Accession #BCO38507) was amplified using proof-reading TAQ polymerase (Accuprime, Invitrogen) with primers which included attb1 and attb2 sites for subsequent subcloning into pDONR 221 vector (Invitrogen). Partial Kozak sequence was included in the 5′ primer and stop codon was eliminated in the 3′ primer. The sequences of forward (F) and reverse primers (R) are—5′-GGGGACAAGTTTGTACAAAAAAGCAGGCTCCACCATGATGCGGCTGCGAGGCTC-3′ (SEQ ID NO: 2); and 5′-GGGGACCACTTTGTACAAGAAAGCTGGGTCCAACAATCCATCAAGATTCT-3′ (SEQ ID NO: 3), respectively. Resulting PCR fragment was cloned into Gateway entry vector pDONR 221 (Invitrogen) with BP clonase using STBL2 E. coli competent cells (Invitrogen). Subsequently, it was subcloned into destination vector pcDNA6.2-EMGFP-DEST with LR clonase and was sequenced verified. The 293 cells were transfected with the pcDNA6.2-GLS-GFP and the control vector pcDNA6.2-LacZ-GFP using Fugene (Roche) reagent. GLS expression was confirmed by Western blot using anti-GLS antibody. FACS sorted transfected cells were subjected to meclizine treatment followed by OCR and ECAR measurements.

In test [8] the test system is MCH58 fibroblasts. As to the kind of experiment: Glucose versus galactose cell growth screen (metabolic state-dependent lethality). As to conditions: approximately 10 μM compound, 72 hours; log10 fold change of normalized cell number in glucose versus galactose.
Description: The assay included monitoring or measuring cell growth in cells that are grown in glucose (which allows the cell to utilize glycolysis) or in galactose (which switches the cell energy production from glycolysis to the OXPHOS pathway).
The high glucose medium was replaced with 10 mM glucose or 10 mM galactose wherever indicated. All media contained 1 mM pyruvate and 4 mM glutamine.
Cell number quantification high throughput assays were performed as follows. […] 24 hours later, cells were washed twice in PBS and media was replaced with either 10 mM glucose or 10 mM galactose containing media.
Approximately 100 nL of each compound was pin-transferred in duplicate into the plates with a steel pin array using the CyBi-Well robot (CyBio). […] Compound-treated plates were incubated at 37° C. for 72 hours. […] Wells were then washed once and stored in PBS. Cell culture plates were stored at 4° C. until time of imaging, which was at most 24 hours after fixation.
Imaging was performed by Arrayscan VTi automated microscope (ThermoFisher Scientific) with the use of an automated plate stacker. Appropriate filter sets for the detection of the Hoescht fluorescent signal were used. Four non-overlapping images at 5× magnification (NA 0.25) were acquired for a field of view of 1.3 mm×1.3 mm per image. The plate stacker and microscope including an auto-focusing algorithm were controlled entirely with ArrayScan software. Images were captured and stored simultaneously in at least two independent locations. Image analysis was performed using the freely available open-source software package CellProfiler. […] Images were analyzed individually by first identifying nuclei using the Hoescht staining signal.
Total number of nuclei per field were recorded, and the four images per well were totaled to give the cell count per well. Computation was performed using a UNIX computer cluster. Appropriate masking of each nucleus was ensured by visually monitoring each batch at its onset and intermittently throughout the run.
The fibroblast cells were seeded on Day 0 and incubated for 24 hours in standard culture media.
Normalized cell counts were computed separately for each 96-well plate by dividing the cell count of each well with the trimmed mean (the average after discarding the largest and smallest value) of the cell counts for the 16 DMSO treated wells. […] The remaining replicate measurements were averaged, and fold changes were computed as the ratio between the average normalized counts for the glucose and galactose screens. To evaluate statistical significance, Z-scores were computed for each well against the DMSO (null) distribution and averaged Z-scores across replicates. Wells with average Z-score greater than 2.5 were considered significant.
By jointly analyzing the glucose and galactose results, a glucose-galactose cell growth ratio can be calculated (Sglu/gal) that represents the log10 fold-change in cell growth in a glucose rich media divided by the log10 fold-change in cell growth in a galactose rich media. […] Low Sglu/gal scores (e.g., ranging between approximately (−) 0.1 to (−) 0.7) may arise from inhibition of glycolysis or from inhibition of proliferation, since cells grown in glucose-rich media divide more rapidly.

Regarding `Cc1cccc(CN2CCN(C(c3ccccc3)c3ccc(Cl)cc3)CC2)c1` (racemic) [Meclizine, meclizine hydrochloride], in test [1], the “mitochondrial oxygen consumption in isolated mitochondria” value is recorded as “had no effect”. In addition, the “AMPK activation (phosphorylation)” value in test [2] is “activate AMPK”. The GLS protein level entry in test [3] is reported as “not reduced”. Also, the “serum deprivation-induced activation of caspase 3 and caspase 7” value in test [4] is “prevented”. Also, the “protection against I/R at high concentrations” value in test [5] (50 μM and 100 μM) was “not observed”. In addition, the “protection of cardiomyocytes against I/R (cell viability, Trypan blue)” value in test [5] (60 minutes ischemia, 30 minutes reperfusion) is listed as “protected cardiomyocytes against I/R at various concentrations”. Also, the VO2 in cardiomyocytes result in test [5] (compared to DMSO treated cells) is reported as “decrease in VO2”. Further, the basal glucose uptake entry in test [6] is “promoted increased basal glucose uptake”. For the same molecule, the “oxygen consumption with constitutive GLS expression” value in test [7] is listed as “continued to suppress oxygen consumption”. For the same molecule, the “Sglu/gal (log10 fold change) Score” value in test [8] is reported as 0.16.
